Source: patent publication US20260224563A1, “CRYSTALLINE FORMS OF 6-(3-((5-CHLORO-2-METHOXYPYRIDINE)-3-SULFONAMIDO)-2,6-DIFLUOROPHENYL)-N-METHYLIMIDAZO[1,5-A]PYRAZINE-1-CARBOXAMIDE AND METHODS FOR USING THE SAME” (HIBERCELL, INC., priority 2023, published 2026)

What was measured:
Type in all cases: physicochemical
[1] = Water activity study of the crystalline potassium salt forms (acetone/water suspension, XRPD); settings: water/acetone, 0% water without molecular sieves, KF 0.189 wt. %, 50° C., 20 h
Description: A water activity study of the potassium salt forms was conducted in two groups: (i) Form I and Form III of the potassium salt, and (ii) Form II and Form III of the potassium salt.
Each suspension was shaken at 700 rpm in a shaker at 25° C., 35° C., 45° C., and 50° C., and the sample was analyzed by XRPD.

[2] = Solubility in simulated biological fluid (FaSSGF and FaSSIF) at 37° C., HPLC; pH of filtrate, XRPD of filter cake; settings: for pH (24 h): filtrate; for XRPD (filter cake, crystal form): up to 24 hours; for XRPD: filter cake
Description: (§1) Approximately between 15 mg and 24 mg of sample was suspended in 5 mL or 8 mL of FaSSGF or FaSSIF, respectively. The resulting suspension was shaken at 700 rpm with a QQMSC-100 shaker at 37° C. The suspension was sampled and filtered at certain time intervals, which was achieved by sampling 1000 μL of each suspension which was then filtered and diluted, diluting the resulting filtrate for HPLC analysis to assess solubility. The pH of the filtrate was measured, and the filter cake was analyzed by XRPD.
as §1, with “Approximately” for “Approximately between”, “mg to” for “mg and”, “5” for “5 mL”, “suspension” for “suspension which”, “was” for “was then”
Approximately 15 mg to 24 mg of sample was suspended in 5 or 8 mL of FaSSGF or FaSSIF, respectively. The resulting suspension was shaken at 700 rpm with a QQMSC-100 shaker at 37° C. The suspension was sampled and filtered in certain time interval, which was achieved by sampling 1000 μL of each suspension was filtered and diluted, diluting the resulting filtrate for HPLC analysis to assess solubility. The pH of the filtrate was measured, and the filter cake was analyzed by XRPD.

[3] = Solid-state stability (60° C./closed and 40° C./75% relative humidity open, up to seven days; HPLC purity, XRPD)
Description: HPLC method for stability and solubility testing is listed below.
• Column: Ascentis® Express C18 4.6*150 mm*2.7 μm • Mobile Phase A: 0.05% trifluoroacetic acid in water • Mobile Phase B: Methanol • Gradient (T/B %): 0/10, 10/100, 13.5/10, 15/10 • Column Temperature: 40° C. • Detector: DAD; 220 nm • Flow rate: 1.0 mL/min • Injection volume: 1 μL • Concentration: 1 mg/mL • Run time: 15 minutes • Diluent: Methanol:Water 9:1 (v/v)
The solid-state stability of Form III of the potassium salt was performed using the following protocol: • (1) A sample of Form III of the potassium salt was placed at 60° C./closed and 40° C./75% relative humidity (open) conditions for up to seven days. At the onset of the test (day 0) and day 7 of the test, the sample was dissolved in a diluent to prepare a 1 mg/mL solution for HPLC purity analysis. The solid sample was analyzed by XRPD to assess the crystal form of each solid at day 7. […] The XRPD data confirmed the physicochemical stability of Form III of the potassium salt under both closed and open conditions. […]

[4] = Dynamic vapor sorption (DVS); settings: for DVS weight gain: 0 to 90% relative humidity, 25° C.
Description: Moisture sorption/desorption data was collected on a Vsorp Dynamic Moisture Sorption Analyzer (ProUmid GmbH & Co. KG, Germany). The sample was placed into a tared sample chamber and automatically weighed.
• Equilibrium Condition: 0.01%/40 min • Time between weighing cycles: 10 minutes • Minimum time per climate cycle: 50 minutes • Maximum time per climate cycle: 2.0 hour • Balanced condition: 25° C. at 60% […] for 4 hours • Sample temperature: 25° C. • Adsorption: 70, 80, 90 • Desorption: 80, 70, 60, 50, 40, 30, 20, 10, 0 • Adsorption: 10, 20, 30, 40, 50, 60

[5] = listed as Form II of the free acid

Compound: CNC(=O)c1ncn2cc(-c3c(F)ccc([N-]S(=O)(=O)c4cc(Cl)cnc4OC)c3F)ncc12.[K+] [Forms II and III of the Potassium Salt]
- Crystalline form by XRPD [1]: Form I^20 h

Compound: CNC(=O)c1ncn2cc(-c3c(F)ccc(NS(=O)(=O)c4cc(Cl)cnc4OC)c3F)ncc12 [Free acid Form II, 6-(3-((5-chloro-2-methoxypyridine)-3-sulfonamido)-2,6-difluorophenyl)-N-methylimidazo[1,5-a]pyrazine-1-carboxamide]
- pH (0 h) ([2]; FaSSGF, 37° C.): 1.60
- Concentration ([2]; FaSSGF, 37° C., 0.5 h): 200 ng/mL
- Concentration ([2]; FaSSGF, 37° C., 2.0 h): 300 ng/mL
- Concentration ([2]; FaSSGF, 37° C., 24 h): 1500 ng/mL
- pH (24 h) ([2]; FaSSGF, 37° C.): 1.57
- XRPD (filter cake, crystal form) ([2]; FaSSGF, 37° C.): Unchanged
- pH (0 h) ([2]; FaSSIF, 37° C.): 6.50
- Concentration ([2]; FaSSIF, 37° C., 0.25 h): 3000 ng/mL
- Concentration ([2]; FaSSIF, 37° C., 0.5 h): 1400 ng/mL
- Concentration ([2]; FaSSIF, 37° C., 0.75 h): 1300 ng/mL
- Concentration ([2]; FaSSIF, 37° C., 1.0 h): 1300 ng/mL
- Concentration ([2]; FaSSIF, 37° C., 2.0 h): 1600 ng/mL
- Concentration ([2]; FaSSIF, 37° C., 24 h): 4000 ng/mL
- pH (24 h) ([2]; FaSSIF, 37° C.): 6.49
- XRPD (filter cake, crystal form) ([2]; FaSSIF, 37° C.): Unchanged
- Purity (Area %) 220 nm ([3]; 0 day): 99.96 Area %
- Purity (Area %) 220 nm ([3]; 40° C./75% RH (open), 7 days): 99.94 Area %
- Purity (Area %) 220 nm ([3]; 60° C./closed, 7 days): 99.94 Area %
- physical and chemical stability ([3]; both closed (60° C.) and open (40° C./75% RH) conditions for seven days): maintained physical and chemical stability
- DVS weight gain [4]: ~0%
- DVS weight gain [4, 5]: almost no weight gain
- Hygroscopicity (DVS) ([4]; class by weight gain to 80% relative humidity): Non-hygroscopic
- XRPD pattern after DVS testing [4, 5]: No changes
- Hygroscopicity (DVS) ([4]; relative to the class slightly hygroscopic): below slightly hygroscopic

Compound: CNC(=O)c1ncn2cc(-c3c(F)ccc([N-]S(=O)(=O)c4cc(Cl)cnc4OC)c3F)ncc12.[Na+] [Na salt Form III]
- pH (0 h) ([2]; FaSSGF): 1.60
- Concentration ([2]; FaSSGF, 37° C., 0.5 h): 45900 ng/mL
- Concentration ([2]; FaSSGF, 37° C., 2.0 h): 4400 ng/mL
- Concentration ([2]; FaSSGF, 37° C., 24 h): 4100 ng/mL
- XRPD ([2]; FaSSGF): Changed
- pH (24 h) ([2]; FaSSGF): 1.68
- pH (0 h) ([2]; FaSSIF): 6.50
- Concentration ([2]; FaSSIF, 37° C., 0.25 h): 176000 ng/mL
- Concentration ([2]; FaSSIF, 37° C., 0.5 h): 175000 ng/mL
- Concentration ([2]; FaSSIF, 37° C., 0.75 h): 169000 ng/mL
- Concentration ([2]; FaSSIF, 37° C., 1.0 h): 170000 ng/mL
- Concentration ([2]; FaSSIF, 37° C., 2.0 h): 13200 ng/mL
- Concentration ([2]; FaSSIF, 37° C., 24 h): 9900 ng/mL
- XRPD ([2]; FaSSIF): Changed
- pH (24 h) ([2]; FaSSIF): 6.86
